Data taken from PubChem BioAssay (NCI).
Several values for one entry are separate records, joined by “and”; a condition that tells them apart may be missing. Equal values may be shown once.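 Dose response: 5 concentrations. Exposure: 48 h. Format: 96-well plates. Endpoint: linear interpolation; highest concentration if not reached. GI50 = concentration required for 50% inhibition of growth. TGI marks complete inhibition of growth.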

Experiments:
Test in all cases: growth of human tumour cells (NCI), 48 h
OVCAR-3 ovarian = test system: OVCAR-3 ovarian
MDA-MB-231 breast = test system: MDA-MB-231 breast
SNB-19 CNS = test system: SNB-19 CNS
HS 578T breast = test system: HS 578T breast
NCI-H226 lung = test system: NCI-H226 lung
RPMI-8226 leukemia = test system: RPMI-8226 leukemia
CCRF-CEM leukemia = test system: CCRF-CEM leukemia
KM12 colon = test system: KM12 colon
NCI-H23 lung = test system: NCI-H23 lung
TK-10 renal = test system: TK-10 renal

C=CC[P+](c1ccccc1)(c1ccccc1)c1ccccc1
GI50 (OVCAR-3 ovarian): 1.99 µM | TGI (OVCAR-3 ovarian): > 100 µM | GI50 (MDA-MB-231 breast): 7.61 µM | TGI (MDA-MB-231 breast): > 100 µM | GI50 (SNB-19 CNS): 4.1 µM | TGI (SNB-19 CNS): > 100 µM | GI50 (HS 578T breast): 10.1 µM | TGI (HS 578T breast): > 100 µM | GI50 (NCI-H226 lung): 5.88 µM | TGI (NCI-H226 lung): > 100 µM | GI50 (RPMI-8226 leukemia): 0.675 µM | TGI (RPMI-8226 leukemia): 32.2 µM | GI50 (CCRF-CEM leukemia): 3.4 µM | TGI (CCRF-CEM leukemia): > 100 µM | GI50 (KM12 colon): 1.46 µM | TGI (KM12 colon): > 100 µM

C=CC(C)(O)/C=C/C=C(\C)C(CC1OC1(C)C)OC(=O)/C(C)=C\C (centres undefined)
TGI (OVCAR-3 ovarian): > 100 µM | TGI (MDA-MB-231 breast): > 100 µM | TGI (SNB-19 CNS): > 100 µM | TGI (HS 578T breast): > 100 µM | TGI (NCI-H23 lung): > 100 µM | TGI (TK-10 renal): > 100 µM | TGI (RPMI-8226 leukemia): > 100 µM | TGI (KM12 colon): > 100 µM

CCOc1cc2c(cc1O)/C(=N\O)C[C@@H]1[C@@H]2CC[C@]2(C)[C@@H](O)CC[C@@H]12
GI50 (OVCAR-3 ovarian): 0.0114 µM and 0.0299 µM | GI50 (SNB-19 CNS): 0.00629 µM | GI50 (HS 578T breast): 0.0271 µM | TGI (HS 578T breast): > 82.9 µM | GI50 (NCI-H23 lung): 0.004 µM | TGI (TK-10 renal): > 100 µM | GI50 (NCI-H226 lung): 0.258 µM | TGI (NCI-H226 lung): > 100 µM | TGI (RPMI-8226 leukemia): 0.0632 µM | GI50 (KM12 colon): 0.0797 µM

Cc1cc(=O)[nH]o1
TGI (OVCAR-3 ovarian): > 100 µM | TGI (MDA-MB-231 breast): > 100 µM | TGI (SNB-19 CNS): > 100 µM | TGI (HS 578T breast): > 100 µM | TGI (NCI-H23 lung): > 100 µM | TGI (TK-10 renal): > 100 µM | TGI (NCI-H226 lung): > 100 µM | TGI (RPMI-8226 leukemia): > 100 µM

C/C(=N\N=C(\[Se])N1CCN(c2ccccn2)CC1)c1ccccn1
TGI (MDA-MB-231 breast): 17.5 µM | GI50 (SNB-19 CNS): 0.13 µM | TGI (SNB-19 CNS): 18.6 µM | TGI (HS 578T breast): 68.2 µM | GI50 (NCI-H23 lung): 0.023 µM | TGI (NCI-H23 lung): 21.8 µM | TGI (TK-10 renal): 20.6 µM | TGI (NCI-H226 lung): 14.3 µM | GI50 (RPMI-8226 leukemia): 0.00477 µM | TGI (RPMI-8226 leukemia): 0.486 µM | GI50 (KM12 colon): 0.239 µM | TGI (KM12 colon): 18.5 µM

CCOC(=O)c1c2c(n(Cc3ccccc3)c1C)-c1ccccc1C(=O)C2=O
GI50 (OVCAR-3 ovarian): 12.2 µM | TGI (OVCAR-3 ovarian): 29.3 µM | GI50 (MDA-MB-231 breast): 13.1 µM | TGI (MDA-MB-231 breast): 27.9 µM | GI50 (SNB-19 CNS): 15.4 µM | TGI (SNB-19 CNS): 29.4 µM | GI50 (HS 578T breast): 2.93 µM | TGI (HS 578T breast): 12.4 µM | GI50 (NCI-H23 lung): 12.1 µM | TGI (NCI-H23 lung): 27 µM | GI50 (TK-10 renal): 16.3 µM | TGI (TK-10 renal): 34.6 µM | GI50 (RPMI-8226 leukemia): 13.2 µM | TGI (RPMI-8226 leukemia): 62.2 µM | GI50 (CCRF-CEM leukemia): 3.36 µM | TGI (CCRF-CEM leukemia): 13.5 µM | GI50 (KM12 colon): 19.8 µM | TGI (KM12 colon): 65.3 µM

Cc1noc(C)c1-c1cc(O)cc(C(O)c2ccccc2)c1 (centres undefined)
GI50 (OVCAR-3 ovarian): 6.65 µM | TGI (OVCAR-3 ovarian): > 100 µM | GI50 (MDA-MB-231 breast): 3.92 µM | TGI (MDA-MB-231 breast): > 100 µM | GI50 (SNB-19 CNS): 5.69 µM | TGI (SNB-19 CNS): > 100 µM | GI50 (HS 578T breast): 1.93 µM | TGI (HS 578T breast): 90.7 µM | GI50 (TK-10 renal): 3.99 µM | TGI (TK-10 renal): > 100 µM | GI50 (NCI-H226 lung): 21.3 µM | TGI (NCI-H226 lung): > 100 µM | GI50 (RPMI-8226 leukemia): 1.94 µM | TGI (RPMI-8226 leukemia): 9.64 µM | GI50 (CCRF-CEM leukemia): 14.8 µM | TGI (CCRF-CEM leukemia): > 100 µM | GI50 (KM12 colon): 8.2 µM | TGI (KM12 colon): > 100 µM

CO/N=C(\C)c1cccc(Nc2cc(-c3ccccc3)nc3c(O)cccc23)c1
GI50 (OVCAR-3 ovarian): 2.34 µM | TGI (OVCAR-3 ovarian): 7.12 µM | GI50 (MDA-MB-231 breast): 2.74 µM | TGI (MDA-MB-231 breast): 9.4 µM | GI50 (HS 578T breast): 5.31 µM | TGI (HS 578T breast): 38.8 µM | GI50 (NCI-H23 lung): 3.92 µM | TGI (NCI-H23 lung): 24 µM | GI50 (TK-10 renal): 6.89 µM | TGI (TK-10 renal): 22.8 µM | GI50 (NCI-H226 lung): 19.8 µM | TGI (NCI-H226 lung): > 100 µM | GI50 (RPMI-8226 leukemia): 2.91 µM | TGI (RPMI-8226 leukemia): 8.59 µM | GI50 (CCRF-CEM leukemia): 2.57 µM | TGI (CCRF-CEM leukemia): 8.74 µM | GI50 (KM12 colon): 3.92 µM | TGI (KM12 colon): 19.1 µM

COc1ccc2nc3cc(Cl)ccc3c(N3CCN(c4ccnc(N5CCOCC5)n4)CC3)c2c1
GI50 (OVCAR-3 ovarian): 4.14 µM | TGI (OVCAR-3 ovarian): 57.3 µM | GI50 (SNB-19 CNS): > 100 µM | TGI (SNB-19 CNS): > 100 µM | GI50 (HS 578T breast): 12.3 µM | TGI (HS 578T breast): > 100 µM | GI50 (NCI-H23 lung): 8.61 µM | TGI (NCI-H23 lung): > 100 µM | GI50 (TK-10 renal): 42.5 µM | TGI (TK-10 renal): > 100 µM | GI50 (NCI-H226 lung): > 100 µM | TGI (NCI-H226 lung): > 100 µM | GI50 (RPMI-8226 leukemia): 2.92 µM | TGI (RPMI-8226 leukemia): 10.6 µM | GI50 (CCRF-CEM leukemia): 2.49 µM | TGI (CCRF-CEM leukemia): > 100 µM | GI50 (KM12 colon): 19.3 µM | TGI (KM12 colon): > 100 µM

O=C1OCCC1C(O)C1c2ccccc2-c2ccccc21 (centres undefined)
TGI (OVCAR-3 ovarian): > 100 µM | TGI (SNB-19 CNS): > 100 µM | TGI (NCI-H23 lung): > 100 µM | TGI (TK-10 renal): > 100 µM | TGI (NCI-H226 lung): > 100 µM | TGI (RPMI-8226 leukemia): > 100 µM | TGI (CCRF-CEM leukemia): > 100 µM | TGI (KM12 colon): > 100 µM

CN(C)CCNC(=O)Cn1cc([N+](=O)[O-])c(=O)c2ccccc21
TGI (OVCAR-3 ovarian): > 100 µM | TGI (MDA-MB-231 breast): > 100 µM | TGI (SNB-19 CNS): > 100 µM | TGI (HS 578T breast): > 100 µM | TGI (NCI-H23 lung): > 100 µM | TGI (TK-10 renal): > 100 µM | TGI (NCI-H226 lung): > 100 µM | TGI (CCRF-CEM leukemia): > 100 µM | TGI (KM12 colon): > 100 µM

CC(=O)O[C@]1(C)OC(=O)[C@@H](C)N1[N+](=O)[O-]
TGI (OVCAR-3 ovarian): > 100 µM | TGI (SNB-19 CNS): > 100 µM | TGI (NCI-H23 lung): > 100 µM | TGI (TK-10 renal): > 100 µM | TGI (NCI-H226 lung): > 100 µM | TGI (RPMI-8226 leukemia): > 100 µM | TGI (CCRF-CEM leukemia): > 100 µM | TGI (KM12 colon): > 100 µM

CC1(C)CCc2cc3c(cc2O1)OCC1c2cc4c(cc2OC31)OCO4 (centres undefined)
TGI (OVCAR-3 ovarian): > 100 µM | TGI (SNB-19 CNS): > 100 µM | TGI (NCI-H23 lung): > 100 µM | TGI (TK-10 renal): > 100 µM | TGI (NCI-H226 lung): > 100 µM | TGI (RPMI-8226 leukemia): > 100 µM | TGI (CCRF-CEM leukemia): > 100 µM | TGI (KM12 colon): > 100 µM
